From patent US20160143913A1, “COMBINATION” (Novartis AG, priority 2009, published 2016) come the findings set out here.

One test has as its system RKO. Kind of test: Cell growth inhibition assay (Cell Titer Glo), RKO. The format is cell-based. The settings on record: Homo sapiens, 72 h; RKO colon; BRAF_V600E; PIK3CA_H1047R; single agent, 3 days, mean ± std. From the text:
(§1) Human breast tumor line, MDA-MB-175-VII, human colon tumor lines, Colo-205, DLD-1, HCT-8, HT-29, LS-1034, NCI-H508, RKO, SW1417, SW1463, SW480, SW837 and T84, and human lung tumor lines, A427, A549, Calu 3, Calu 6, HCC827, NCI-H1155, NCI-H1355, NCI-H1792, NCI-H23, NCI-H727, SW1573 and SW900 were from ATCC. Human breast tumor line EFM-19 was from German Collection of Microorganisms and Cell Cultures. Human lung tumor line COR-L23 was from European Collection of Cell Cultures (UK). Human colon tumor line KM12 and human lung tumor line Hop62 were from National Cancer Institute. MV522 was from University of California at San Diego. All lines were cultured in RPMI 1640 medium containing 10% fetal bovine serum (FBS).
(§2) All cells were cultured for a minimum of 72 hours prior to cell plating. […] ATP levels were determined by adding Cell Titer Glo® (Promega) according to the manufacturer's protocol. Briefly, Cell Titer Glo® was added each plate, incubated for 30 minutes then luminescent signal was read on the SpectraMax L plate reader with a 0.5 sec integration time.
(§3) Inhibition of cell growth was estimated after treatment with compound or combination of compounds for three days and comparing the signal to cells treated with vehicle (DMSO). Cell growth was calculated relative to vehicle (DMSO) treated control wells. […]
(ATP-based viability assays read luminescence as a measure of living cells.)

The next test concerns human colon tumor lines. Briefly: Cell growth inhibition assay, colon lines. The format is cell-based.
Source text: as §1
(§4) All cells were cultured for a minimum of 72 hours prior to cell plating. Cells were assayed in a 96-well tissue culture plate (NUNC 136102) of RPMI medium containing 10% FBS for all cells at 1,000 cells per well. […] ATP levels were determined by adding Cell Titer Glo® (Promega) according to the manufacturer's protocol. Briefly, Cell Titer Glo® was added each plate, incubated for 30 minutes then luminescent signal was read on the SpectraMax L plate reader with a 0.5 sec integration time.
as §3
(§5) Combination effects on potency were evaluated using Combination Index (CI) which was calculated with the back-interpolated IC50 values and the mutually non-exclusive equation derived by Chou and Talalay (1): […]
(§6) The combination effects on the response scale were quantified by Excess Over Highest Single Agent (EOHSA) based on the concept of nonlinear blending as described in detail by Peterson and Novick (2007) and Peterson (2010) [(2;3) [Peterson and Novick, 2007; Peterson, 2010]. […]

In the next test the test system is NCI-H508. Briefly: Cell growth inhibition assay (Cell Titer Glo), NCI-H508. The format is cell-based. The settings on record: Homo sapiens, 72 h; NCI-H508 colon; BRAF_G596R; PIK3CA_E545K; single agent, 3 days, mean ± std.
Source text: as §1, §2, §3

Another test has as its system SW1463. Briefly: Cell growth inhibition assay (Cell Titer Glo), SW1463. The format is cell-based. The following applies: Homo sapiens, 72 h; SW1463 colon; KRAS_G12C; PIK3CA/PTEN WT; single agent, 3 days, mean ± std.
Source text: as §1, §2, §3

The test system of another test is A427. Kind of test: Cell growth inhibition assay (Cell Titer Glo), A427. The following applies: Homo sapiens, A-427, 72 h; A427 lung; KRAS_G12D; PIK3CA/PTEN WT; single agent, 3 days, mean ± std. The format is cell-based.
Source text: as §1, §2, §3

The next test relates to HCC827. Kind of test: Cell growth inhibition assay (Cell Titer Glo), HCC827. The test is classed as cell-based. The following applies: Homo sapiens, 72 h; HCC827 lung; KRAS/RAF WT; PIK3CA/PTEN WT; EGFR E746_A750 deletion mutation; single agent, 3 days, mean ± std.
Source text: as §1, §2, §3

A further test relates to MV522. Briefly: Cell growth inhibition assay (Cell Titer Glo), MV522. The test is classed as cell-based. The settings on record: Homo sapiens, 72 h; MV522 lung; BRAF_V600E; PIK3CA/PTEN WT; single agent, 3 days, mean ± std.
Source text: as §1, §2, §3

A further test has as its system MDA-MB-175-VII. Kind of test: Cell growth inhibition assay (Cell Titer Glo), MDA-MB-175-VII. The format is cell-based, Human. The following applies: for IC50: Homo sapiens, 72 h, MDA-MB-175-VII breast, KRAS/RAF WT, PIK3CA/PTEN WT, single agent, 3 days, mean ± std.
Source text: as §1, §4, §3, §5, §6

A further test has as its system EFM-19. Briefly: Cell growth inhibition assay (Cell Titer Glo), EFM-19. The test is classed as cell-based. The settings on record: Homo sapiens, EFM-19, 72 h, EFM-19 breast; KRAS/RAF WT; PIK3CA_H1049L; single agent, 3 days, mean ± std.
Source text: as §1, §2, §3

The next test relates to SW1417. Kind of test: Cell growth inhibition assay (Cell Titer Glo), SW1417. The test is classed as cell-based. The following applies: Homo sapiens, 72 h; SW1417 colon; BRAF_V600E; PIK3CA/PTEN WT; single agent, 3 days, mean ± std.
Source text: as §1, §2, §3

A further test deals with Colo-205. Briefly: Cell growth inhibition assay (Cell Titer Glo), Colo-205. The test is classed as cell-based. The following applies: Homo sapiens, 72 h; Colo-205 colon; BRAF_V600E; PIK3CA/PTEN WT; single agent, 3 days, mean ± std.
Source text: as §1, §2, §3

For another test, the system named is NCI-H1792. Briefly: Cell growth inhibition assay (Cell Titer Glo), NCI-H1792. The format is cell-based. The settings on record: Homo sapiens, 72 h; NCI-H1792 lung; KRAS_G12C; PIK3CA/PTEN WT; single agent, 3 days, mean ± std.
Source text: as §1, §2, §3

Read-outs that look alike come from different tables or passages of the source. A value given as a limit tells only on which side of the number the result lay.

Regarding `CC(=O)Nc1cccc(-n2c(=O)n(C3CC3)c(=O)c3c(Nc4ccc(I)cc4F)n(C)c(=O)c(C)c32)c1` [Compound A, N-{3-[3-cyclopropyl-5-(2-fluoro-4-iodo-phenylamino)-6,8-dimethyl-2,4,7-trioxo-3,4,6,7-tetrahydro-2H-pyrido[4,3-d]pyrimidin-1-yl]phenyl}acetamide], the IC50 in the test with RKO is 18 ± 1 nM; in the test with human colon tumor lines (LS-1034, Colo-205, SW1463, HT29, SW480 and SW1417, read-out: IC50, single agent), not above 37 nM; in the test with human colon tumor lines (colon lines depicted in Table 1, range over the lines, read-out: IC50s, single agent), 1 to 632 nM; in the test with NCI-H508, 23 ± 2 nM; in the test with SW1463, 0.004 ± 0.003 µM; in the test on A427, 22 ± 3 nM. For the same compound, the IC50 is more than 1 µM in the test with HCC827; 2 ± 1 nM with MV522; 96 ± 33 nM in the test with MDA-MB-175-VII; more than 1000 nM in the test with EFM-19; 3 ± 1 nM in the test on SW1417; 1 nM in the test with Colo-205. In the test with NCI-H1792, the IC50 amounted to 0.053 ± 0.016 µM. The “sensitivity as a single agent (in words)” value with MDA-MB-175-VII (MDA-MB-175-VII cells) is on record as “sensitive”.

Consider `Cn1ncc(Cl)c1-c1cc(C(=O)N[C@H](CN)Cc2cccc(F)c2)sc1Cl` [Compound B, N-{(1S)-2-amino-1-[(3-fluorophenyl)methyl]ethyl}-5-chloro-4-(4-chloro-1-methyl-1H-pyrazol-5-yl)-2-thiophenecarboxamide], for which the IC50 in the test with RKO is 1810 ± 674 nM; with human colon tumor lines (a subset of these colon cell lines (modest sensitivity), range over the lines, read-out: IC50 values, single agent), 500 to 5000 nM; with SW1463 it was 9.72 ± 0.139 µM; with A427, more than 8000 nM; in the test on HCC827, more than 8 µM; in the test with MDA-MB-175-VII, less than 1000 nM. The IC50 was more than 10000 nM with SW1417, 2570 ± 137 nM in the test with Colo-205 and 7.31 ± 2.87 µM in the test with NCI-H1792.
